Assay results published in PubChem BioAssay (NCI).
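Cells were grown in 96-well plates and exposed to each compound for 48 hours at five concentrations; endpoints were interpolated linearly between bracketing concentrations, or set to the highest concentration if not reached. The concentration for 50% growth inhibition is given as GI50. TGI denotes the concentration required for complete inhibition of growth.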

Experiments:
Test in all cases: NCI anticancer screen, dose series, 48 h
KM12 colon = tested on: KM12 colon
LOX IMVI melanoma = tested on: LOX IMVI melanoma
HCT-116 colon = tested on: HCT-116 colon
A549 NSCLC = tested on: A549 NSCLC
OVCAR-8 ovarian = tested on: OVCAR-8 ovarian
UO-31 renal = tested on: UO-31 renal
SK-MEL-28 melanoma = tested on: SK-MEL-28 melanoma
NCI-H460 lung = tested on: NCI-H460 lung
OVCAR-4 ovarian = tested on: OVCAR-4 ovarian
EKVX NSCLC = tested on: EKVX NSCLC
MCF7 breast = tested on: MCF7 breast
CAKI-1 renal = tested on: CAKI-1 renal
SK-MEL-5 melanoma = tested on: SK-MEL-5 melanoma
MDA-MB-435 = tested on: MDA-MB-435
PC-3 prostate = tested on: PC-3 prostate
SF-295 CNS = tested on: SF-295 CNS
HS 578T breast = tested on: HS 578T breast
UACC-257 melanoma = tested on: UACC-257 melanoma
MDA-MB-231 breast = tested on: MDA-MB-231 breast
SF-539 CNS = tested on: SF-539 CNS
SN12C renal = tested on: SN12C renal
SW-620 colon = tested on: SW-620 colon
RPMI-8226 leukemia = tested on: RPMI-8226 leukemia
HCT-15 colon = tested on: HCT-15 colon
OVCAR-5 ovarian = tested on: OVCAR-5 ovarian
U251 CNS = tested on: U251 CNS
T-47D breast = tested on: T-47D breast
SK-OV-3 ovarian = tested on: SK-OV-3 ovarian
NCI-H23 lung = tested on: NCI-H23 lung
HOP-92 NSCLC = tested on: HOP-92 NSCLC
786-0 renal = tested on: 786-0 renal
HCC-2998 colon = tested on: HCC-2998 colon
IGROV1 ovarian = tested on: IGROV1 ovarian
SNB-75 CNS = tested on: SNB-75 CNS
ACHN renal = tested on: ACHN renal
MOLT-4 leukemia = tested on: MOLT-4 leukemia
UACC-62 melanoma = tested on: UACC-62 melanoma
COLO 205 colon = tested on: COLO 205 colon
TK-10 renal = tested on: TK-10 renal
DU-145 prostate = tested on: DU-145 prostate
SK-MEL-2 melanoma = tested on: SK-MEL-2 melanoma
MALME-3M melanoma = tested on: MALME-3M melanoma
SF-268 CNS = tested on: SF-268 CNS
NCI-H522 lung = tested on: NCI-H522 lung
NCI/ADR-RES ovarian = tested on: NCI/ADR-RES ovarian
BT-549 breast = tested on: BT-549 breast
NCI-H226 lung = tested on: NCI-H226 lung
SNB-19 CNS = tested on: SNB-19 CNS
A498 renal = tested on: A498 renal
HT29 colon = tested on: HT29 colon
HOP-62 NSCLC = tested on: HOP-62 NSCLC
RXF 393 renal = tested on: RXF 393 renal
CCRF-CEM leukemia = tested on: CCRF-CEM leukemia
OVCAR-3 ovarian = tested on: OVCAR-3 ovarian
M14 melanoma = tested on: M14 melanoma

Cc1ccccc1NC(=O)NC(CC(N)=O)c1ccc2c(c1)nc(-c1cccc(Oc3ccc(C(C)(C)C)cc3)c1)n2CCCN1CCCCC1C (stereo not given) was tested, and the GI50 (KM12 colon) was 2.34 µM, the TGI (KM12 colon) was 5.63 µM and the GI50 (LOX IMVI melanoma) was 1.67 µM. The TGI (LOX IMVI melanoma) was 3.14 µM, the GI50 (HCT-116 colon) was 1.71 µM and the TGI (HCT-116 colon) was 3.16 µM. For the same molecule, the GI50 (A549 NSCLC) was 5.54 µM, the TGI (A549 NSCLC) was 14.6 µM and the GI50 (OVCAR-8 ovarian) was 2.44 µM. For the same molecule, the TGI (OVCAR-8 ovarian) was 6.63 µM, the GI50 (UO-31 renal) was 16.4 µM and the TGI (UO-31 renal) was 31.9 µM. The GI50 (SK-MEL-28 melanoma) was 1.89 µM, the TGI (SK-MEL-28 melanoma) was 3.51 µM and the GI50 (NCI-H460 lung) was 2 µM. For the same molecule, the TGI (NCI-H460 lung) was 3.87 µM, the GI50 (OVCAR-4 ovarian) was 3.07 µM and the TGI (OVCAR-4 ovarian) was 8.39 µM. It also gave a GI50 (EKVX NSCLC) of 5.37 µM, a TGI (EKVX NSCLC) of 11.5 µM and a GI50 (MCF7 breast) of 1.92 µM. The TGI (MCF7 breast) was 3.54 µM, the GI50 (CAKI-1 renal) was 17.2 µM and the TGI (CAKI-1 renal) was 42.8 µM. The GI50 (SK-MEL-5 melanoma) was 1.73 µM, the TGI (SK-MEL-5 melanoma) was 3.19 µM and the GI50 (MDA-MB-435) was 1.72 µM. For the same molecule, the TGI (MDA-MB-435) was 3.3 µM, the GI50 (PC-3 prostate) was 3.94 µM and the TGI (PC-3 prostate) was 12 µM. The GI50 (SF-295 CNS) was 4.25 µM, the TGI (SF-295 CNS) was 9.57 µM and the GI50 (HS 578T breast) was 5.58 µM. The TGI (HS 578T breast) was 16.3 µM, the GI50 (UACC-257 melanoma) was 1.86 µM and the TGI (UACC-257 melanoma) was 3.49 µM. It also gave a GI50 (MDA-MB-231 breast) of 2.34 µM, a TGI (MDA-MB-231 breast) of 5.27 µM and a GI50 (SF-539 CNS) of 1.82 µM. The TGI (SF-539 CNS) was 3.77 µM, the GI50 (SN12C renal) was 4.49 µM and the TGI (SN12C renal) was 11.1 µM. The GI50 (SW-620 colon) was 1.84 µM, the TGI (SW-620 colon) was 3.49 µM and the GI50 (RPMI-8226 leukemia) was 2.49 µM. For the same molecule, the TGI (RPMI-8226 leukemia) was 6.48 µM, the GI50 (HCT-15 colon) was 12.5 µM and the TGI (HCT-15 colon) was 27.1 µM. The GI50 (OVCAR-5 ovarian) was 5.21 µM, the TGI (OVCAR-5 ovarian) was 12 µM and the GI50 (U251 CNS) was 1.75 µM. For the same molecule, the TGI (U251 CNS) was 3.23 µM, the GI50 (T-47D breast) was 2.6 µM and the TGI (T-47D breast) was 10.5 µM. It also gave a GI50 (SK-OV-3 ovarian) of 10.9 µM, a TGI (SK-OV-3 ovarian) of 23.9 µM and a GI50 (NCI-H23 lung) of 4.89 µM. The TGI (NCI-H23 lung) was 9.91 µM, the GI50 (HOP-92 NSCLC) was 1.94 µM and the TGI (HOP-92 NSCLC) was 7.33 µM. The GI50 (786-0 renal) was 4.19 µM, the TGI (786-0 renal) was 8.66 µM and the GI50 (HCC-2998 colon) was 2.23 µM. For the same molecule, the TGI (HCC-2998 colon) was 5.04 µM, the GI50 (IGROV1 ovarian) was 3.25 µM and the TGI (IGROV1 ovarian) was 9.82 µM. The GI50 (SNB-75 CNS) was 2.41 µM, the TGI (SNB-75 CNS) was 6.5 µM and the GI50 (ACHN renal) was 9.08 µM. It also gave a TGI (ACHN renal) of 22.3 µM, a GI50 (MOLT-4 leukemia) of 3.39 µM and a TGI (MOLT-4 leukemia) of 9.65 µM. It also gave a GI50 (UACC-62 melanoma) of 1.71 µM, a TGI (UACC-62 melanoma) of 3.22 µM and a GI50 (COLO 205 colon) of 1.82 µM. It also gave a TGI (COLO 205 colon) of 3.35 µM, a GI50 (TK-10 renal) of 4.28 µM and a TGI (TK-10 renal) of 9.01 µM. It also gave a GI50 (DU-145 prostate) of 5.4 µM, a TGI (DU-145 prostate) of 13.6 µM and a GI50 (SK-MEL-2 melanoma) of 11.1 µM. The TGI (SK-MEL-2 melanoma) was 23.3 µM, the GI50 (MALME-3M melanoma) was 1.88 µM and the TGI (MALME-3M melanoma) was 3.98 µM. For the same molecule, the GI50 (SF-268 CNS) was 1.88 µM, the TGI (SF-268 CNS) was 3.88 µM and the GI50 (NCI-H522 lung) was 1.88 µM. For the same molecule, the TGI (NCI-H522 lung) was 3.57 µM, the GI50 (NCI/ADR-RES ovarian) was 28 µM and the TGI (NCI/ADR-RES ovarian) was over 85.9 µM. It also gave a GI50 (BT-549 breast) of 13.3 µM, a TGI (BT-549 breast) of 26.1 µM and a GI50 (NCI-H226 lung) of 7.9 µM. For the same molecule, the TGI (NCI-H226 lung) was 25.7 µM, the GI50 (SNB-19 CNS) was 1.97 µM and the TGI (SNB-19 CNS) was 4.27 µM. It also gave a GI50 (A498 renal) of 5.91 µM, a TGI (A498 renal) of 13.4 µM and a GI50 (HT29 colon) of 1.95 µM. The TGI (HT29 colon) was 3.89 µM, the GI50 (HOP-62 NSCLC) was 1.97 µM and the TGI (HOP-62 NSCLC) was 4.46 µM. It also gave a GI50 (RXF 393 renal) of 2.91 µM, a TGI (RXF 393 renal) of 7.13 µM and a GI50 (CCRF-CEM leukemia) of 3.03 µM. The TGI (CCRF-CEM leukemia) was 15.1 µM, the GI50 (OVCAR-3 ovarian) was 2.57 µM and the TGI (OVCAR-3 ovarian) was 6.35 µM. The GI50 (M14 melanoma) was 1.83 µM and the TGI (M14 melanoma) was 3.44 µM.
